From US20240228488A1 (TAKEDA PHARMACEUTICAL COMPANY LIMITED, priority 2021, published 2024)

How the values were obtained:
[1] = biological target: human activated kallikrein enzyme (Homo sapiens, UniProt P03952); test: Plasma kallikrein inhibition, fluorogenic PFR-AMC substrate, 500 pM activated kallikrein format; assay type: biochemical; settings: 500 pM activated kallikrein, 300 uM PFR-AMC, 30 min preincubation, 10 min reaction; read-out: Primary Dose Response Assay: Average EC50
Method in brief: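 Fluorogenic readout (ex 380 / em 460 nm) after 10 min room-temperature reaction with 300 uM Pro-Phe-Arg-AMC substrate, following 30 min preincubation of inhibitors with 500 pM enzyme. Buffer: Tris pH 7.5, EDTA, NaCl, PEG-400, Triton X-100. Values given as EC50 ranges.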

plasma kallikrein = biological target: T1, plasma kallikrein (Homo sapiens, UniProt P03952); test: Neat human plasma assay, FXIIa contact pathway-activated, PFR-AMC substrate; assay type: biochemical; settings: citrated human plasma 78% final, 10 nM human FXIIa, 100 μM PFR-AMC; read-out: Human Plasma Assay: IC90
T1 construct: from tissue
T1 sequence (P03952 391-638 limits assumed): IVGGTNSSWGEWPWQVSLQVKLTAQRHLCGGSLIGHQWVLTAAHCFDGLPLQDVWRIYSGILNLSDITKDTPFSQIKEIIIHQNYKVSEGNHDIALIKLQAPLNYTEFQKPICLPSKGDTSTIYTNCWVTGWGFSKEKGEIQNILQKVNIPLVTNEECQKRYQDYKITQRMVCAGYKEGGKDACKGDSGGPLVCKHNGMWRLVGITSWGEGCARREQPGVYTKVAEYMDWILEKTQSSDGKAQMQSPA
T1 sequence (P03952 20-390 partner limits assumed): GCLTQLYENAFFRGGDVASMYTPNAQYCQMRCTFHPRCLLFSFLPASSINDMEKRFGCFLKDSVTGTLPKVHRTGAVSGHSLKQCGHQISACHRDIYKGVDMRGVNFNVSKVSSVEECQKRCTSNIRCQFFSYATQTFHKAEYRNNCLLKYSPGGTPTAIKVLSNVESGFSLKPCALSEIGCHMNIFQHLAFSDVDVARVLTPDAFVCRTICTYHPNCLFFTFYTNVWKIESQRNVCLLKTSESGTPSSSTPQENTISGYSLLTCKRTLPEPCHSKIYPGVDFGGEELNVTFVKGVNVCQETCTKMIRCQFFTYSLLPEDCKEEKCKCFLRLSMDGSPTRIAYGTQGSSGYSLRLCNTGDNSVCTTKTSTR
Method in brief: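 Compound inhibition of plasma kallikrein measured as PFR-AMC (100 μM) cleavage rate over 5 min at room temperature in 78% citrated human plasma activated with 10 nM FXIIa (Tris pH 7.5 buffer). IC50/IC90 from 4-parameter fit of rate versus inhibitor concentration.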

Sequence of human activated kallikrein enzyme (P03952 391-638 limits assumed): as the sequence (P03952 391-638 limits assumed) above
Sequence of human activated kallikrein enzyme (P03952 20-390 partner limits assumed): as the sequence (P03952 20-390 partner limits assumed) above

| SMILES | EC50 [1] [nM] | IC90 (plasma kallikrein) [nM] |
| --- | --- | --- |
| COCC(Nc1cc(NC(=O)[C@H]2C[C@@H]2c2nccc(C)n2)ncn1)c1cn2cc(C3CC3)cc(N3CC(=O)N(C)C3=O)c2n1 (stereo partly drawn) [Example 373, (1S,2S)-N-(6-((1-(6-cyclopropyl-8-(3-methyl-2,4-dioxoimidazolidin-1-yl)imidazo[1,2-a]pyridin-2-yl)-2-methoxyethyl)amino)pyrimidin-4-yl)-2-(4-methylpyrimidin-2-yl)cyclopropane-1-carboxamide] | 1 to 10 | 400 to 1500 |
| CN1CC(c2cc(C3CC3)cn3cc(CNc4cc(NC(=O)[C@H]5C[C@@H]5c5cccc(Cl)c5)ncn4)nc23)C1 [Example I-193, (1S,2S)-2-(3-chlorophenyl)-N-(6-(((6-cyclopropyl-8-(1-methylazetidin-3-yl)imidazo[1,2-a]pyridin-2-yl)methyl)amino)pyrimidin-4-yl)cyclopropane-1-carboxamide] | < 1 | < 400 |
| O=C(Nc1cc(NCc2cn3cc(C4CC4)cc(N4CCN(C5COC5)CC4)c3n2)ccn1)[C@H]1C[C@@H]1c1cccc(Cl)c1 [Example I-233, (1S,2S)-2-(3-chlorophenyl)-N-(4-(((6-cyclopropyl-8-(4-(oxetan-3-yl)piperazin-1-yl)imidazo[1,2-a]pyridin-2-yl)methyl)amino)pyridin-2-yl)cyclopropane-1-carboxamide] | < 1 | 400 to 1500 |
| Cc1nc([C@H]2C[C@@H]2C(=O)Nc2cc(N[C@H](C)c3cn4cc(C5CC5)cc(N5CC(=O)N(C)C5=O)c4n3)ncn2)ncc1F (relative stereo) [Example 492, rac-(-(1S*,2S*)-N-(6-(((R)-1-(6-cyclopropyl-8-(3-methyl-2,4-dioxoimidazolidin-1-yl)imidazo[1,2-a]pyridin-2-yl)ethyl)amino)pyrimidin-4-yl)-2-(5-fluoro-4-methylpyrimidin-2-yl)cyclopropane-1-carboxamide] | < 1 | 400 to 1500 |
| CN(C)S(=O)(=O)c1cc(C2CC2)cn2cc(CNc3cc(NC(=O)[C@H]4C[C@@H]4c4cccc(Cl)c4)ncn3)nc12 [Example I-151, (1S,2S)-2-(3-chlorophenyl)-N-(6-(((6-cyclopropyl-8-(N,N-dimethylsulfamoyl)imidazo[1,2-a]pyridin-2-yl)methyl)amino)pyrimidin-4-yl)cyclopropane-1-carboxamide] | 1 to 10 | 1500 to 10000 |
| O=C(Nc1cc(NCc2cn3cc(C4CC4)ccc3n2)ccn1)[C@H]1C[C@@H]1c1cccc(Cl)c1 (single isomer, unassigned) [Example 117] | < 1 | 1500 to 10000 |
| Cc1ccnc([C@H]2C[C@@H]2C(=O)Nc2cc(N(CC(=O)OCc3ccccc3)Cc3cn4cc(C5CC5)cc(N5CC(=O)N(C)C5=O)c4n3)ncn2)n1 [Example 371, benzyl N-((6-cyclopropyl-8-(3-methyl-2,4-dioxoimidazolidin-1-yl)imidazo[1,2-a]pyridin-2-yl)methyl)-N-(6-((1S,2S)-2-(4-methylpyrimidin-2-yl)cyclopropane-1-carboxamido)pyrimidin-4-yl)glycinate] | 1 to 10 | 1500 to 10000 |
| O=C(Nc1cc(NCc2cn3cc(C4CC4)ccc3n2)cc(=O)[nH]1)[C@H]1C[C@@H]1c1cc(Cl)ccn1 [Example 343, (1S,2S)-2-(4-chloropyridin-2-yl)-N-(4-(((6-cyclopropylimidazo[1,2-a]pyridin-2-yl)methyl)amino)-6-oxo-1,6-dihydropyridin-2-yl)cyclopropane-1-carboxamide] | < 1 | 1500 to 10000 |
| Cc1ccnc([C@@]2(F)C[C@@H]2C(=O)Nc2cc(N(C)Cc3cn4cc(C5CC5)cc(N5CC(=O)N(C)C5=O)c4n3)nc(C)n2)n1 (racemic) [Example 490, rac-(1S*,2S*)-N-(6-(((6-cyclopropyl-8-(3-methyl-2,4-dioxoimidazolidin-1-yl)imidazo[1,2-a]pyridin-2-yl)methyl)(methyl)amino)-2-methylpyrimidin-4-yl)-2-fluoro-2-(4-methylpyrimidin-2-yl)cyclopropane-1-carboxamide] | < 1 | 400 to 1500 |
| CN1CCC(F)(c2cc(C3CC3)cn3cc(CNc4ccnc(NC(=O)[C@H]5C[C@@H]5c5cccc(Cl)c5)c4)nc23)CC1 [Example I-229, (1S,2S)-2-(3-chlorophenyl)-N-(4-(((6-cyclopropyl-8-(4-fluoro-1-methylpiperidin-4-yl)imidazo[1,2-a]pyridin-2-yl)methyl)amino)pyridin-2-yl)cyclopropane-1-carboxamide] | < 1 | < 400 |
| N#Cc1ccc(Cl)cc1[C@H]1C[C@@H]1C(=O)Nc1cc(NCc2cn3cc(C4CC4)ccc3n2)ccn1 (racemic) [Example 82, rac-(1S*,2S*)-2-(5-chloro-2-cyanophenyl)-N-(4-(((6-cyclopropylimidazo[1,2-a]pyridin-2-yl)methyl)amino)pyridin-2-yl)cyclopropane-1-carboxamide] | < 1 | 10000 to 48000 |
| Cc1ccnc([C@@]2(F)C[C@@H]2C(=O)Nc2cc(NCc3cn4cc(C5CC5)cc(N5CC(=O)N(C)C5=O)c4n3)ncn2)n1 (racemic) [Example 496, rac-(1S*,2S*)-N-(6-(((6-cyclopropyl-8-(3-methyl-2,4-dioxoimidazolidin-1-yl)imidazo[1,2-a]pyridin-2-yl)methyl)amino)pyrimidin-4-yl)-2-fluoro-2-(4-methylpyrimidin-2-yl)cyclopropane-1-carboxamide] | < 1 | < 400 |
| Cc1ccnc([C@H]2C[C@@H]2C(=O)Nc2cc(N(C)Cc3cn4cc(C5CC5)cc(S(C)(=O)=O)c4n3)nc(C)n2)n1 [Example I-161, (1S,2S)-N-(6-(((6-cyclopropyl-8-(methylsulfonyl)imidazo[1,2-a]pyridin-2-yl)methyl)(methyl)amino)-2-methylpyrimidin-4-yl)-2-(4-methylpyrimidin-2-yl)cyclopropane-1-carboxamide] | < 1 | 1500 to 10000 |
| CN1C(=O)CN(c2cc(C3CC3)cn3cc(CNc4cc(NC(=O)[C@H]5C[C@@H]5c5nccc(Cl)n5)ncn4)nc23)C1=O (racemic) [Example I-168, rac-(1S*,2S*)-2-(4-chloropyrimidin-2-yl)-N-(6-(((6-cyclopropyl-8-(3-methyl-2,4-dioxoimidazolidin-1-yl)imidazo[1,2-a]pyridin-2-yl)methyl)amino)pyrimidin-4-yl)cyclopropane-1-carboxamide] | < 1 | 400 to 1500 |
| Cc1ccnc([C@H]2C[C@@H]2C(=O)Nc2cc(OCc3cn4cc(C5CC5)cc(N5CC(=O)N(C)C5=O)c4n3)ncn2)n1 (single isomer, unassigned) [Example 30] | < 1 | < 400 |
| Cc1ncnc([C@H]2C[C@@H]2C(=O)Nc2cc(NCc3cn4cc(C5CC5)cc(N5CC(=O)N(C)C5=O)c4n3)ncn2)n1 (racemic) [Example 495, rac-(1S*,2S*)-N-(6-(((6-cyclopropyl-8-(3-methyl-2,4-dioxoimidazolidin-1-yl)imidazo[1,2-a]pyridin-2-yl)methyl)amino)pyrimidin-4-yl)-2-(4-methyl-1,3,5-triazin-2-yl)cyclopropane-1-carboxamide] | 1 to 10 | 400 to 1500 |
| CC(=O)Nc1cc(C2CC2)cn2cc(CNc3ccnc(NC(=O)[C@H]4C[C@@H]4c4cccc(Cl)c4)c3)nc12 [Example 142, (1S,2S)-N-(4-(((8-acetamido-6-cyclopropylimidazo[1,2-a]pyridin-2-yl)methyl)amino)pyridin-2-yl)-2-(3-chlorophenyl)cyclopropane-1-carboxamide] | < 1 | 1500 to 10000 |
| CN1CCN(c2cc(C3CC3)cn3cc(CNc4ccnc(NC(=O)[C@H]5C[C@@H]5c5cccc(Cl)c5)c4)nc23)CC1 [Example 138, (1S,2S)-2-(3-chlorophenyl)-N-(4-(((6-cyclopropyl-8-(4-methylpiperazin-1-yl)imidazo[1,2-a]pyridin-2-yl)methyl)amino)pyridin-2-yl)cyclopropane-1-carboxamide] | < 1 | < 400 |
| Cc1ccnc([C@H]2C[C@@H]2C(=O)Nc2cc(OCc3cn4cc(C5CC5)cc(S(C)(=O)=O)c4n3)cnn2)n1 [Example 561, (1S,2S)-N-(5-((6-cyclopropyl-8-(methylsulfonyl)imidazo[1,2-a]pyridin-2-yl)methoxy)pyridazin-3-yl)-2-(4-methylpyrimidin-2-yl)cyclopropane-1-carboxamide] | < 1 | < 400 |
| O=C(Nc1cc(NCc2cn3cc(C4CC4)cc(N4CCN(CC5CC5)CC4)c3n2)ccn1)[C@H]1C[C@@H]1c1cccc(Cl)c1 [Example 601, (1S,2S)-2-(3-chlorophenyl)-N-(4-(((6-cyclopropyl-8-(4-(cyclopropylmethyl)piperazin-1-yl)imidazo[1,2-a]pyridin-2-yl)methyl)amino)pyridin-2-yl)cyclopropane-1-carboxamide] | < 1 | 400 to 1500 |
| O=C(Nc1cc(NCc2cn3cc(C4CC4)cc(N4CCN(C5COC5)CC4)c3n2)ncn1)[C@H]1C[C@@H]1c1cccc(Cl)c1 [Example I-202, (1S,2S)-2-(3-chlorophenyl)-N-(6-(((6-cyclopropyl-8-(4-(oxetan-3-yl)piperazin-1-yl)imidazo[1,2-a]pyridin-2-yl)methyl)amino)pyrimidin-4-yl)cyclopropane-1-carboxamide] | 1 to 10 | 400 to 1500 |
